Results as given in article PMC5701173, “An activity-dependent proximity ligation platform for spatially resolved quantification of active enzymes in single cells” (Nature Communications, 2017).

Biological target: T1, Neutral cholesterol ester hydrolase 1 (NCEH1) (Homo sapiens, UniProt Q6PIU2)
T1 construct: endogenous full-length enzyme in live PC3 cells
T1 sequence (Q6PIU2 1-408): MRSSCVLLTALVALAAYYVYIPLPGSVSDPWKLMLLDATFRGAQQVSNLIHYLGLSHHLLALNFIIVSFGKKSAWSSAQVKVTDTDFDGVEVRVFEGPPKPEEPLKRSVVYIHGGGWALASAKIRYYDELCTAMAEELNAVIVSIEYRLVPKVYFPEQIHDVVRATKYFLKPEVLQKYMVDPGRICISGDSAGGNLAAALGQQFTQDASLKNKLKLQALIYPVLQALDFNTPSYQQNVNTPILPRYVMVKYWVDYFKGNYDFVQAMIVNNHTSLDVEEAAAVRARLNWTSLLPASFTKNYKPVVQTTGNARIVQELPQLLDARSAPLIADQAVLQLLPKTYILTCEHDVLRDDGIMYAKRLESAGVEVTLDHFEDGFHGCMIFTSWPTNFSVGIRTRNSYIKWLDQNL
Assay: competitive activity-dependent proximity ligation (FP-Bio probe) in live cells; gel-based ABPP in SKOV3
Assay type: cell-based

IC50: 6 nM
SMILES: CC(C)c1ccccc1OC(=O)NCCc1ccc2ccccc2c1 [JW480]
